Assay results published in patent US6914045B2, “Glycopeptide antibiotics” (Wyeth Holdings Corporation, priority 2001, dated 2005).

What was measured:
[1] = test system: Enterococcus faecalis (GC 2246); experiment: acute lethal infection in mice; type: in vivo; details: female CD-1 mice, intraperitoneal challenge, intravenous 30 min. after infection, 7 day survival
Method in brief: (§1)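 Intraperitoneal challenge of female CD-1 mice with a bacterial dose lethal to untreated animals within 24-48 hr; single iv treatment 30 min later, 5 mice per dose level. Survival is scored at day 7 and pooled from three experiments to give the median effective dose.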

[2] = test system: Staphylococcus aureus-SMITH (GC 4543); experiment: acute lethal infection in mice; type: in vivo; details: acute lethal infection, female CD-1 mice, intraperitoneal challenge, intravenous 30 min. after infection, 7 day survival
Method in brief: as §1

[3] = test system: Streptococcus sp.; experiment: in vitro antibacterial evaluation, MIC by broth dilution; type: cell-based; details: broth dilution, 18 hours at 35° C.
Method in brief: (§2)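 Broth dilution per NCCLS M7-A2 in Mueller-Hinton II medium, inoculum 5×10^5 CFU/mL, antibiotic range 64-0.06 μg/mL. MIC taken as lowest concentration inhibiting growth; Gram-positive panel includes recent clinical isolates resistant to methicillin, penicillin and/or vancomycin.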

[4] = test system: Staphylococcus sp.; experiment: as above; type: cell-based
Method in brief: as §2

[5] = test system: Enterococcus sp.; experiment: as above; type: cell-based; details: broth dilution, 18 hours at 35° C.
Method in brief: as §2

[6] = test system: Escherichia coli; experiment: as above; type: cell-based; details: 18 hours at 35° C.
Method in brief: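 Broth dilution MIC per NCCLS M7-A2 in Mueller-Hinton II medium, inoculum 5×10^5 CFU/mL, antibiotic range 64-0.06 μg/mL. MIC taken as lowest concentration inhibiting growth.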

[7] = test system: Enterococcus faecalis (GC 6189); experiment: acute lethal infection in mice; type: in vivo; details: female CD-1 mice, intraperitoneal challenge, intravenous 30 min. after infection, 7 day survival
Method in brief: as §1

[8] = test system: Streptococcus pneumoniae (GC 1894); experiment: acute lethal infection in mice; type: in vivo; details: female CD-1 mice, intraperitoneal challenge, intravenous 30 min. after infection, 7 day survival
Method in brief: as §1

[9] = test system: Escherichia coli; experiment: in vitro antibacterial evaluation, MIC by broth dilution; type: cell-based; details: 18 hours at 35° C., strain ATCC 25922
Method in brief: as §2

[10] = broth dilution, 18 hours at 35° C.
[11] = Enterococcus faecalis (ATCC 29212)
[12] = Enterococcus faecalis (GC 4552)
[13] = Enterococcus faecalis (GC 4553)
[14] = Enterococcus faecalis (GC 4554)

CC(c1ccccc1)C1NC(=O)CNC(=O)C(CO)NC(=O)C(C(O)C2CNC(=N)N2C2OC(CO)C(O)C(O)C2O)NC(=O)C(C(O)C2CNC(=N)N2)NC(=O)C(Cc2ccc(OC3OC(CO)C(OC4OC(COC(=O)C(c5ccccc5)c5ccccc5)C(O)C(O)C4O)C(O)C3O)cc2)NC1=O (stereo not drawn) [Example 96c, Cyclo[glycyl-β-methylphenylalanyl-O-[4-O-[6-O-(diphenylacetyl)hexolpyranosyl]hexopyranosyl]tyrosyl-3-(2-iminoimidazolidin-4-yl)seryl-3-(3-hexopyranosyl-2-iminoimidazolidin-4-yl)serylseryl]]
0.29 mg/kg: median effective dose (ED50), Staphylococcus aureus-SMITH (GC 4543) [2]
2 µg/mL: MIC Enterococcus avium (GC 4558) ([5]; Enterococcus avium (GC 4558)) | MIC Enterococcus faecalis (ATCC 29212) [5, 11] | MIC Enterococcus faecalis (GC 4552) [5, 12] | MIC Enterococcus faecalis (GC 4553) [5, 13] | MIC Enterococcus faecalis (GC 4554) [5, 14] | MIC Enterococcus faecium (GC 2243) ([5]; Enterococcus faecium (GC 2243)) | MIC Enterococcus faecium (GC 4556) ([5]; Enterococcus faecium (GC 4556)) | MIC Enterococcus avium (GC 4558) [5] | MIC Enterococcus faecalis (ATCC 29212) [5] | MIC Enterococcus faecalis (GC 4552) [5] | MIC Enterococcus faecalis (GC 4553) [5] | MIC Enterococcus faecalis (GC 4554) [5] | MIC Enterococcus faecium (GC 2243) [5] | MIC Enterococcus faecium (GC 4556) [5]
64 µg/mL: MIC Escherichia coli (ATCC 25922) [6]
<0.06 µg/mL: MIC Streptococcus agalactiae (GC 4564) [3] | MIC Streptococcus pneumoniae (GC 4565) [3] | MIC Streptococcus pyogenes (ID-3187) [3] | MIC Streptococcus agalactiae (GC 4564) ([3]; strain GC 4564) | MIC Streptococcus pneumoniae (GC 4565) ([3]; strain GC 4565) | MIC Streptococcus pyogenes (ID-3187) ([3]; strain ID-3187)
1 µg/mL: MIC Coagulase Negative Staphylococcus (GC 4547) [4, 10] | MIC Coagulase Negative Staphylococcus (GC 4549) [4, 10] | MIC Coagulase Negative Staphylococcus (GC 4551) [4, 10] | MIC Staphylococcus aureus (ATCC 29213) ([4]; strain ATCC 29213; broth dilution, 18 hours at 35° C.) | MIC Staphylococcus aureus (GC 4542) ([4]; strain GC 4542; broth dilution, 18 hours at 35° C.) | MIC Staphylococcus aureus (GC 4544) ([4]; strain GC 4544; broth dilution, 18 hours at 35° C.) | MIC Coagulase Negative Staphylococcus (GC 4547) ([4]; strain GC 4547; broth dilution, 18 hours at 35° C.) | MIC Coagulase Negative Staphylococcus (GC 4549) ([4]; strain GC 4549; broth dilution, 18 hours at 35° C.) | MIC Coagulase Negative Staphylococcus (GC 4551) ([4]; strain GC 4551; broth dilution, 18 hours at 35° C.) | MIC Enterococcus faecium (GC 4557) ([5]; Enterococcus faecium (GC 4557)) | MIC Enterococcus faecalis (GC 2242) [5] | MIC Enterococcus faecium (GC 4557) [5] | MIC Enterococcus faecalis (GC 2242) ([5]; strain GC 2242)
0.5 µg/mL: MIC Coagulase Negative Staphylococcus (ID-3941) [4, 10] | MIC Staphylococcus aureus-SMITH (GC 4543) [4, 10] | MIC Staphylococcus haemolyticus (GC 4546) [4, 10] | MIC Staphylococcus aureus (GC 1131) ([4]; strain GC 1131; broth dilution, 18 hours at 35° C.) | MIC Staphylococcus aureus (GC 4541) ([4]; strain GC 4541; broth dilution, 18 hours at 35° C.) | MIC Staphylococcus aureus-SMITH (GC 4543) ([4]; strain GC 4543; broth dilution, 18 hours at 35° C.) | MIC Staphylococcus aureus (GC 4545) ([4]; strain GC 4545; broth dilution, 18 hours at 35° C.) | MIC Staphylococcus haemolyticus (GC 4546) ([4]; strain GC 4546; broth dilution, 18 hours at 35° C.) | MIC Coagulase Negative Staphylococcus (ID-3941) ([4]; strain ID-3941; broth dilution, 18 hours at 35° C.)
0.25 µg/mL: MIC Coagulase Negative Staphylococcus (GC 4548) [4, 10] | MIC Coagulase Negative Staphylococcus (GC 4548) ([4]; strain GC 4548; broth dilution, 18 hours at 35° C.)
5.2 mg/kg: median effective dose (ED50), Enterococcus faecalis (GC 2246) [1]

CCCC(C)C1OCC2OC(OC3C(CO)OC(Oc4ccc(CC5NC(=O)C(C(C)c6ccccc6)NC(=O)CNC(=O)C(CO)NC(=O)C(C(O)C6CNC(=N)N6C6OC(CO)C(O)C(O)C6O)NC(=O)C(C(O)C6CNC(=N)N6)NC5=O)cc4)C(O)C3O)C(O)C(O)C2O1 (stereo not drawn) [Example 111, Cyclo[glycyl-β-methylphenylalanyl-O-[4-O-[4,6-O-(2-methylpentylidene)hexopyranosyl]-hexopyranosyl]tyrosyl-3-(2-iminoimidazolidin-4-yl)seryl-3-(3-hexopyranosyl-2-iminoimidazolidin-4-yl)serylseryl]]
0.28 mg/kg: median effective dose (ED50), Enterococcus faecalis (GC 6189) [7]
0.03 mg/kg: median effective dose (ED50), Streptococcus pneumoniae (GC 1894) [8]
0.5 µg/mL: MIC Streptococcus pneumoniae (GC 4565) ([3]; Streptococcus pneumoniae (GC 4565)) | MIC Streptococcus pyogenes (ID-3187) ([3]; Streptococcus pyogenes (ID-3187)) | MIC Streptococcus pneumoniae (GC 4565) ([3]; strain GC 4565) | MIC Streptococcus pyogenes (ID-3187) ([3]; strain ID-3187) | MIC Coagulase Negative Staphylococcus (GC 4547) [4, 10] | MIC Coagulase Negative Staphylococcus (GC 4549) [4, 10] | MIC Coagulase Negative Staphylococcus (GC 4547) ([4]; broth dilution, 18 hours at 35° C.; strain GC 4547) | MIC Coagulase Negative Staphylococcus (GC 4549) ([4]; broth dilution, 18 hours at 35° C.; strain GC 4549) | MIC Enterococcus faecium (GC 4557) ([5]; Enterococcus faecium (GC 4557)) | MIC Enterococcus faecium (GC 4557) ([5]; strain GC 4557)
1 µg/mL: MIC Streptococcus agalactiae (GC 4564) ([3]; Streptococcus agalactiae (GC 4564)) | MIC Streptococcus agalactiae (GC 4564) ([3]; strain GC 4564) | MIC Coagulase Negative Staphylococcus (GC 4548) [4, 10] | MIC Coagulase Negative Staphylococcus (GC 4551) [4, 10] | MIC Coagulase Negative Staphylococcus (ID-3941) [4, 10] | MIC Staphylococcus aureus (ATCC 29213) [4, 10] | MIC Staphylococcus aureus (GC 1131) [4, 10] | MIC Staphylococcus aureus (GC 4541) [4, 10] | MIC Staphylococcus aureus (GC 4542) [4, 10] | MIC Staphylococcus aureus (GC 4544) [4, 10] | MIC Staphylococcus aureus (GC 4545) [4, 10] | MIC Staphylococcus aureus-SMITH (GC 4543) [4, 10] | MIC Staphylococcus haemolyticus (GC 4546) [4, 10] | MIC Staphylococcus aureus (GC 1131) ([4]; broth dilution, 18 hours at 35° C., inoculum 5×10^5 CFU/mL; strain GC 1131) | MIC Staphylococcus aureus (ATCC 29213) ([4]; broth dilution, 18 hours at 35° C.; strain ATCC 29213) | MIC Staphylococcus aureus (GC 4541) ([4]; broth dilution, 18 hours at 35° C.; strain GC 4541) | MIC Staphylococcus aureus (GC 4542) ([4]; broth dilution, 18 hours at 35° C.; strain GC 4542) | MIC Staphylococcus aureus (GC 4544) ([4]; broth dilution, 18 hours at 35° C.; strain GC 4544) | MIC Staphylococcus aureus (GC 4545) ([4]; broth dilution, 18 hours at 35° C.; strain GC 4545) | MIC Staphylococcus haemolyticus (GC 4546) ([4]; broth dilution, 18 hours at 35° C.; strain GC 4546) | MIC Coagulase Negative Staphylococcus (GC 4548) ([4]; broth dilution, 18 hours at 35° C.; strain GC 4548) | MIC Coagulase Negative Staphylococcus (GC 4551) ([4]; broth dilution, 18 hours at 35° C.; strain GC 4551) | MIC Coagulase Negative Staphylococcus (ID-3941) ([4]; broth dilution, 18 hours at 35° C.; strain ID-3941) | MIC Staphylococcus aureus-SMITH (GC 4543) ([4]; broth dilution, 18 hours at 35° C.; strain SMITH GC 4543) | MIC Enterococcus faecalis (GC 2242) ([5]; Enterococcus faecalis (GC 2242)) | MIC Enterococcus faecium (GC 2243) ([5]; Enterococcus faecium (GC 2243)) | MIC Enterococcus faecalis (GC 2242) ([5]; strain GC 2242) | MIC Enterococcus faecium (GC 2243) ([5]; strain GC 2243)
0.14 mg/kg: median effective dose (ED50), Staphylococcus aureus-SMITH (GC 4543) [2]
32 µg/mL: MIC Escherichia coli (ATCC 25922) [9]
2 µg/mL: MIC Enterococcus avium (GC 4558) ([5]; Enterococcus avium (GC 4558)) | MIC Enterococcus faecalis (ATCC 29212) [5, 11] | MIC Enterococcus faecalis (GC 4552) [5, 12] | MIC Enterococcus faecalis (GC 4553) [5, 13] | MIC Enterococcus faecalis (GC 4554) [5, 14] | MIC Enterococcus faecium (GC 4556) ([5]; Enterococcus faecium (GC 4556)) | MIC Enterococcus faecalis (ATCC 29212) ([5]; strain ATCC 29212) | MIC Enterococcus faecalis (GC 4552) ([5]; strain GC 4552) | MIC Enterococcus faecalis (GC 4553) ([5]; strain GC 4553) | MIC Enterococcus faecalis (GC 4554) ([5]; strain GC 4554) | MIC Enterococcus faecium (GC 4556) ([5]; strain GC 4556) | MIC Enterococcus avium (GC 4558) ([5]; strain GC 4558)
